# In patent US20100267774A1, “P38 MAP KINASE INHIBITORS” (CHROMA THERAPEUTICS LTD., priority 2007, published 2010):
# Like-named read-outs stand apart in the source and are kept apart here.
# How the values were obtained:
# [1] = tested on: phosphorylation of MAPKAP-2 in HUT 78 cells; assay: Cellular assay for the phosphorylation of MAPKAP-2 by p38 in HUT 78 cells; type: cell-based; conditions: for IC50: Homo sapiens, HuT78, non-macrophage cell line HUT 78, anisomycin 10 μM, read-out: Inhibition of phosphorylation of MAPKAP-2 in HUT 78 cells (IC50); for Ratio IC50s in HUT 78 to U937 cells: macrophage selectivity
# Method: U937 or HUT78 cells were plated in RPMI 1640, and were incubated at 37° C., 5% CO2 for 18 hours. 10 mM stocks of compounds were diluted media/0.1% DMSO to give a log or semi-log dilution series. The wells for ‘no treatment’ and ‘anisomycin’ were treated with 0.1% DMSO only. The cells were incubated at 37° C., 5% CO2 for a further 4 hours. Anisomycin was added to all wells except ‘no treatment’ at a final concentration of 10 μM. The cells were incubated at 37° C., 5% CO2 for 30 minutes before harvest. Plates were stood on ice whilst harvesting, and all the following steps were carried out at 4° C. The cells were pelleted at 1000 rpm for 10 minutes at 4° C., the media aspirated, and the pellet washed with cold PBS. The pellets were lysed in 120 μl of SDS lysis buffer (62.5 mM Tris, pH 6.8, 2% SDS, 10% glycerol, 50 mM DTT, with protease inhibitors and phosphatase inhibitors added according to the manufacturers' recommendations). After 30 minutes on ice, the samples were sonicated for 5 seconds before centrifugation at 13,000 rpm 4° C. for 10 minutes to remove cell debris. 10 μl of the resulting gel samples were loaded per lane on NOVEX 4-12% Bis-Tris MOPS gels. Membranes from western transfer of gels were blotted with anti-phospho MAPKAP-2, anti-phospho HSP27 and anti-GAPDH according to the manufacturers' instructions. Signal was visualised using HRP-linked anti-rabbit or anti-mouse antibodies, ECL reagent and ECL film. IC50 values for the various compounds were visualised from the resulting photographic images, using both band-shift and signal intensity.
# In cells, p38 activity leads to the phosphorylation of the protein MAPKAP-2 and thus one method to assess the inhibition of p38 inside cells is to look at the decrease in the levels of phosphorylated MAPKAP-2. Table 1 lists the IC50s as measured by the level of MAPKAP-2 phosphorylation in a macrophage cell line (U937) and non-macrophage cell line (HUT78). […] In contrast, example 33 that has an esterase motif that would be expected to confer macrophage selectivity, has an activity in the macrophage cell line (U937) which is 100 fold greater than in the non-macrophage cell line (HUT 78).
# p38 MAP Kinase a = target: T1, p38 MAP Kinase a (Homo sapiens, UniProt Q16539); assay: p38 MAP Kinase activity, radiometric filter-binding assay (Upstate); type: biochemical
# T1 construct: purchased Upstate (Dundee UK)
# [2] = tested on: phosphorylation of MAPKAP-2 in U937 cells; assay: Cellular assay for the phosphorylation of MAPKAP-2 by p38 in U937 cells; type: cell-based; conditions: Homo sapiens, U-937; macrophage cell line U937; anisomycin 10 μM; read-out: Inhibition of phosphorylation of MAPKAP-2 in U937 cells (IC50)
# Method: U937 or HUT78 cells were plated in RPMI 1640, and were incubated at 37° C., 5% CO2 for 18 hours. 10 mM stocks of compounds were diluted media/0.1% DMSO to give a log or semi-log dilution series. The wells for ‘no treatment’ and ‘anisomycin’ were treated with 0.1% DMSO only. The cells were incubated at 37° C., 5% CO2 for a further 4 hours. Anisomycin was added to all wells except ‘no treatment’ at a final concentration of 10 μM. The cells were incubated at 37° C., 5% CO2 for 30 minutes before harvest. Plates were stood on ice whilst harvesting, and all the following steps were carried out at 4° C. The cells were pelleted at 1000 rpm for 10 minutes at 4° C., the media aspirated, and the pellet washed with cold PBS. The pellets were lysed in 120 μl of SDS lysis buffer (62.5 mM Tris, pH 6.8, 2% SDS, 10% glycerol, 50 mM DTT, with protease inhibitors and phosphatase inhibitors added according to the manufacturers' recommendations). […]
# In cells, p38 activity leads to the phosphorylation of the protein MAPKAP-2 and thus one method to assess the inhibition of p38 inside cells is to look at the decrease in the levels of phosphorylated MAPKAP-2. Table 1 lists the IC50s as measured by the level of MAPKAP-2 phosphorylation in a macrophage cell line (U937) and non-macrophage cell line (HUT78). […]
# THP-1 TNFα release = assay: LPS-stimulation of THP-1 cells, TNF-α release by ELISA; type: cell-based; conditions: Homo sapiens, THP-1, 6 h; read-out: Inhibitor activity versus THP-1 TNFα release
# Method: THP-1 cells were plated in 100 μl at a density of 4×10^4 cells/well in V-bottomed 96 well tissue culture treated plates and incubated at 37° C. in 5% CO2 for 16 hrs. 2 hrs after the addition of the inhibitor in 100 μl of tissue culture media, the cells were stimulated with LPS (E coli strain 005:B5, Sigma) at a final concentration of 1 μg/ml and incubated at 37° C. in 5% CO2 for 6 hrs. TNF-α levels were measured from cell-free supernatants by sandwich ELISA (R&D Systems #QTA00B).
# [3] = compound as such (Example 33: Ester), read-out: Inhibition of P38α (IC50 nM)
# [4] = IC50 range, read-out: Inhibitor activity versus p38 MAPKa
# T1 sequence (Q16539 whole entry): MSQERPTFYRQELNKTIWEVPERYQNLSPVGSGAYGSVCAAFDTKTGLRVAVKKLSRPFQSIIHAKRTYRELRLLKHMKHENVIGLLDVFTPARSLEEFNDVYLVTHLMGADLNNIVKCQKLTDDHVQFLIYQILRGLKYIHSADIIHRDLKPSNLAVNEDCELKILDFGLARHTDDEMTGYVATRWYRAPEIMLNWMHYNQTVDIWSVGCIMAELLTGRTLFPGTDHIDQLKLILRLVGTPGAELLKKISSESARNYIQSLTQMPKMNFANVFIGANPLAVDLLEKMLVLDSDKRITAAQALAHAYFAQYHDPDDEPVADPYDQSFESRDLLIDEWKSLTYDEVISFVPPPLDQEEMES
Compound,IC50 [1] [nM],Ratio IC50s in HUT 78 to U937 cells ([1]; MAPKAP-2 phosphorylation),IC50 (p38 MAP Kinase a; [3]) [nM],IC50 [2] [nM],activity in the macrophage cell line (U937) greater than in the non-macrophage cell line (HUT 78) ([1]; MAPKAP-2 phosphorylation) [fold],"IC50 (p38 MAP Kinase a; Acid (carboxylic acid of the ester), read-out: Inhibition of P38α (IC50 nM)) [nM]",IC50 (p38 MAP Kinase a; [4]) [nM],IC50 (THP-1 TNFα release) [nM]
"Nc1c(C(=O)c2ccc(F)cc2F)ccc(=O)n1-c1c(F)cccc1F [Compound I, reference compound]",10,1.1,47,9,,,,
"CC(C)C[C@H](NCCc1cc(F)c(-n2c(N)c(C(=O)c3ccc(F)cc3F)ccc2=O)c(F)c1)C(=O)OC1CCCC1 [Example 33, cyclopentyl N-(2-{4-[6-amino-5-(2,4-difluorobenzoyl)-2-oxopyridin-1(2H)-yl]-3,5-difluorophenyl}ethyl)-L-leucinate]",73,112,100,0.7,100,0.5,100 to 1000,< 100
"CC(C)(C)OC[C@H](NCCc1cc(F)c(-n2c(N)c(C(=O)c3ccc(F)cc3F)ccc2=O)c(F)c1)C(=O)OC(C)(C)C [Example 41, tert-butyl N-(2-{4-[6-amino-5-(2,4-difluorobenzoyl)-2-oxopyridin-1(2H)-yl]-3,5-difluorophenyl}ethyl)-O-tert-butyl-L-serinate]",,,,,,,< 100,< 100
"Nc1c(C(=O)c2ccc(F)cc2F)ccc(=O)n1-c1c(F)cc(CCN[C@@H](C(=O)OC2CCCC2)c2ccccc2)cc1F [Example 42, Cyclopentyl (2R)-[(2-{4-[6-amino-5-(2,4-difluorobenzoyl)-2-oxopyridin-1(2H)-yl]-3,5-difluorophenyl}ethyl)amino](phenyl)acetate]",,,,,,,< 100,< 100
"CC(C)[C@H](NCCc1cc(F)c(-n2c(N)c(C(=O)c3ccc(F)cc3F)ccc2=O)c(F)c1)C(=O)OC1CCCC1 [Example 43, Cyclopentyl N-[2-(4-{6-amino-5-[(2,4-difluorophenyl)carbonyl]-2-oxopyridin-1(2H)-yl}-3,5 difluorophenyl)ethyl]-L-valinate]",,,,,,,< 100,< 100
"Nc1c(C(=O)c2ccc(F)cc2F)ccc(=O)n1-c1c(F)cc(CCN[C@H](C(=O)OC2CCCC2)c2ccc(O)cc2)cc1F [Example 44, Cyclopentyl (2S)-{[2-(4-{6-amino-5-[(2,4-difluorophenyl)carbonyl]-2-oxopyridin-1(2H)-yl}-3,5-difluorophenyl)ethyl]amino}(4-hydroxyphenyl)ethanoate]",,,,,,,< 100,< 100
"C[C@@H](O)[C@H](NCCc1cc(F)c(-n2c(N)c(C(=O)c3ccc(F)cc3F)ccc2=O)c(F)c1)C(=O)OC1CCCC1 [Example 45, Cyclopentyl N-[2-(4-{6-amino-5-[(2,4-difluorophenyl)carbonyl]-2-oxopyridin-1(2H)-yl}-3,5-difluorophenyl)ethyl]-L-threoninate]",,,,,,,< 100,< 100
"COc1ccc([C@H](NCCc2cc(F)c(-n3c(N)c(C(=O)c4ccc(F)cc4F)ccc3=O)c(F)c2)C(=O)OC2CCCC2)cc1 [Example 46, Cyclopentyl (2S)-{[2-(4-{6-amino-5-[(2,4-difluorophenyl)carbonyl]-2-oxopyridin-1(2H)-yl}-3,5-difluorophenyl)ethyl]amino}(4-methoxyphenyl)ethanoate]",,,,,,,< 100,< 100
"CC(C)C[C@H](NCCc1ccc(-n2c(N)c(C(=O)c3ccc(F)cc3F)ccc2=O)s1)C(=O)OC1CCCC1 [Example 49, Cyclopentyl N-(2-{5-[6-amino-5-(2,4-difluorobenzoyl)-2-oxopyridin-1(2H)-yl]-2-thienyl}ethyl)-L-leucinate]",,,,,,,100 to 1000,< 100
